{"source": "patent US9993414B2", "about": "“Oral care composition comprising an Amadori compound” (Colgate-Palmolive Company, priority 2012, dated 2018)", "key": {"[1]": {"tested_on": "S. mutans (ATCC #25175)", "experiment": "Inhibition of glucose metabolism with Streptococcus mutans (GC-MS of remaining α- and β-glucose)", "type": "cell-based", "settings": "for Glucose inhibition (%) from Example 5: versus Comparative Example 1 (no Amadori compound)", "protocol": "In this Example, the ability of Amadori compound from the reaction of glucose with glycine to inhibit glucose metabolism with Streptococcus mutans was investigated. A stock glucose solution of 0.4 wt % glucose dissolved in distilled water (0.4 g/100 mL) was prepared. A stock Amadori compound from the reaction of glucose with glycine solution of 4.0 wt % Amadori compound from the reaction of glucose with glycine dissolved in distilled water (0.4 g/10 mL) was prepared. A bacterial solution was prepared as follows: S. mutans (ATCC #25175) was cultured overnight in TSB medium and then the resultant bacterial pellet was re-suspended bacterial to OD610=0.8 (a concentration with an optical reading of 0.8 at 610 nm for a 1-cm light path) with phosphate buffered saline (pH=7.4) (PBS). In accordance with Example 5, a test sample comprising 1 mL of the bacterial solution, 0.5 mL of the Amadori compound from the reaction of glucose with glycine solution and 0.5 mL of the glucose solution was subjected to incubation at a temperature of 37° C., representing normal human body temperature. Then, 200 μL of the test sample was transferred into individual HPLC vials after 10 minutes of the incubation period, after 30 minutes of the incubation period, and after 60 minutes of the incubation period. The HPLC vial cap was used to seal the vial. Immediately the HPLC vials were placed in a 100° C. water bath for about 5 minutes to denaturize the enzymes. The resultant products were subjected to gas chromatography-mass spectrometry (GC-MS) testing and analysis to determine the amounts of the α- and β-glucose forms present. In Table 1, the number of counts during MS detection for each respective α- and β-glucose form detected in the respective sample at the respective incubation time is indicated, the number of counts representing the amount of the respective glucose form present. In Comparative Example 1, the testing of Example 5 was repeated but on a control sample comprising 1 mL of the bacterial solution, 0.5 mL of the glucose solution and 0.5 mL of deionized water. In other words, Comparative Example 1 had no Amadori compound from the reaction of glucose with glycine. The control sample was also subjected to incubation at a temperature of 37° C. for the same respective time periods."}, "[2]": {"tested_on": "S. mutans (ATCC #25175)", "experiment": "Inhibition of biofilm formation, crystal violet staining in saliva-coated 96-well plate", "type": "cell-based, Streptococcus mutans", "settings": "for Inhibition against biofilm formation (in words): 1 wt % glucose and 2 wt % Amadori compound, versus no Amadori compound; for Average absorbance (590 nm), amount of biofilm: test sample 1 wt % glucose and 2 wt % Amadori compound, co-incubated overnight at 37° C., lower absorbance = less biofilm", "protocol": "In this Example, the ability of Amadori compound from the reaction of glucose with glycine to inhibit biofilm formation was investigated. A sample of cultured S. mutans (ATCC #25175) bacterium was grown in TSB medium overnight and subsequently centrifuged to form a pellet, and then the centrifuged S. mutans was re-suspended with TSB (trypticase soy broth) containing 1% glucose and adjusted to OD610=0.5 (a concentration with an optical reading of 0.5 at 610 nm for a 1-cm light path). A 50 microliter sample of the re-suspended S. mutans (OD610=0.5) was co-incubated with a 50 microliter test sample. The test sample contained 1 wt % of glucose and 2 wt % of Amadori compound from the reaction of glucose with glycine. The 100 μL total of the re-suspended S. mutans (OD610=0.5) and test sample, representing a clarified saliva, was co-incubated in a 96-well plate which was pre-coated with the clarified saliva and then left overnight at 37° C. After the co-incubation period, the supernatant liquid was aspirated from the well plate. A 50 microliter amount of crystal violet was added to each well and permitted to stain any biofilm for a period of 10 minutes. The well plate was washed with 100 μL of PBS. The amount of biofilm was determined by irradiating the well plate with electromagnetic radiation having a wavelength of 590 nm and measuring the absorbance. The lower the absorbance reading, the less the amount of biofilm detected."}, "[3]": {"settings": "10 minutes incubation at 37° C., same sample"}, "[4]": {"settings": "30 minutes incubation at 37° C., same sample"}, "[5]": {"settings": "60 minutes incubation at 37° C., same sample"}}}
{"smiles": "O=C(O)CNCC(=O)[C@@H](O)[C@H](O)[C@H](O)CO", "note": "[Example 1, N-(1-deoxy-fructos-1-yl)glycine]", "values": [{"measurement": "α-glucose, number of counts during MS detection", "setting": "[1]; 10 minutes incubation at 37° C., 1 mL bacterial solution + 0.5 mL 4.0 wt % compound solution + 0.5 mL 0.4 wt % glucose solution", "value": 1753564, "unit": "counts"}, {"measurement": "Total glucose (α + β), number of counts during MS detection", "setting": "[1]; [3]", "value": 5564912, "unit": "counts"}, {"measurement": "β-glucose, number of counts during MS detection", "setting": "[1]; [3]", "value": 3811348, "unit": "counts"}, {"measurement": "Glucose inhibition (%) from Example 5", "setting": "[1]; 10 minutes incubation", "value": 56.4, "unit": "%"}, {"measurement": "Total glucose (α + β), number of counts during MS detection", "setting": "[1]; [4]", "value": 6220880, "unit": "counts"}, {"measurement": "α-glucose, number of counts during MS detection", "setting": "[1]; [4]", "value": 1912144, "unit": "counts"}, {"measurement": "β-glucose, number of counts during MS detection", "setting": "[1]; [4]", "value": 4308736, "unit": "counts"}, {"measurement": "Glucose inhibition (%) from Example 5", "setting": "[1]; 30 minutes incubation", "value": 59.9, "unit": "%"}, {"measurement": "Total glucose (α + β), number of counts during MS detection", "setting": "[1]; [5]", "value": 5403991, "unit": "counts"}, {"measurement": "α-glucose, number of counts during MS detection", "setting": "[1]; [5]", "value": 1724203, "unit": "counts"}, {"measurement": "β-glucose, number of counts during MS detection", "setting": "[1]; [5]", "value": 3679788, "unit": "counts"}, {"measurement": "Glucose inhibition (%) from Example 5", "setting": "[1]; 60 minutes incubation", "value": 70.1, "unit": "%"}, {"measurement": "Inhibition of glucose metabolization / degradation (in words)", "setting": "[1]; co-incubated with S. mutans and glucose, versus no Amadori compound", "value": "inhibited glucose metabolization"}, {"measurement": "Inhibition of glucose metabolism", "setting": "[1]; within the incubation time period of from 10 to 60 minutes", "value": "at least 56%"}, {"measurement": "Inhibition against biofilm formation (in words)", "setting": "[2]; listed as Amadori compound from the reaction of glucose with glycine", "value": "very strong inhibition"}, {"measurement": "Average absorbance (590 nm), amount of biofilm", "setting": "[2]", "value": 0.2885}]}
{"smiles": "N=C(N)NCCC[C@H](NCC(=O)[C@@H](O)[C@H](O)[C@H](O)CO)C(=O)O", "note": "[Example 2, N-(1-deoxy-fructos-1-yl) arginine]", "values": [{"measurement": "Inhibition against biofilm formation (in words)", "setting": "[2]; listed as Amadori compound from the reaction of glucose with arginine", "value": "relatively weak inhibition"}, {"measurement": "Average absorbance (590 nm), amount of biofilm", "setting": "[2]", "value": 1.2808}]}
{"smiles": "O=C(O)CC[C@H](NCC(=O)[C@@H](O)[C@H](O)[C@H](O)CO)C(=O)O", "note": "[Example 4, N-(1-deoxy-fructos-1-yl)glutamic acid]", "values": [{"measurement": "Inhibition against biofilm formation (in words)", "setting": "[2]; listed as Amadori compound from the reaction of glucose with glutamic acid", "value": "very strong inhibition"}, {"measurement": "Average absorbance (590 nm), amount of biofilm", "setting": "[2]", "value": 0.5476}]}
